Measurements from patent US20030211183A1, “Skin-improving agent” (Kyowa Hakko Kogyo Co., Ltd., priority 1999, published 2003).

Tested on: Human neonate-derived fibroblasts
Assay: Collagen synthesis-promoting activity on human fibroblasts (3H-glycine incorporation)
Type: cell-based
Settings: 300 μmol/l
Experimental: 201-271, Kodansha Scientific (1986).
Human neonate-derived fibroblasts (Sanko Junyaku Co., Ltd.) were suspended in DMEM containing 10% fetal bovine serum [Virology, 8, 396 (1959)] and cultured at 37° C. in 5% CO2 to the stationary phase. To the resulting culture were added ^3H-labeled glycine and a test substance, followed by further culturing for 72 hours. After 500 μmol/l phenylmethanesulfonyl fluoride (PMSF) was added to the obtained culture, the cells and the medium were collected, followed by disruption with a sonicator to extract proteins. To the extract were added 100 μmol/l bovine serum albumin (BSA) and 10% trichloroacetic acid (TCA), and the resulting mixture was centrifuged at 3000 rpm for 5 minutes to collect the precipitate. […]
After the reaction mixture was separated by ultrafiltration (molecular weight: 10,000), the radioactivity of the protein fraction in the filtrate (CDP) was measured as the amount of newly synthesized collagen. Then, the radioactivity of the protein fraction which was not filtered (NCDP) was measured, and the collagen synthesis ratio was calculated according to equation 2. The relative collagen synthesis-promoting activity (the change in collagen synthesis) was calculated according to equation 3 as the relative value of the collagen synthesis ratio in the presence of a test substance based on the control. […]

Oc1cc(O)c2c(c1)O[C@H](c1ccc(O)c(O)c1)[C@H](O)[C@H]2c1c(O)cc(O)c2c1O[C@H](c1ccc(O)c(O)c1)[C@H](O)C2 [PB2, procyanidin B-2 [epicatechin-(4β→8)-epicatechin]]
Amount of collagen synthesized compared with control (in words): increased
